Assay results: US20070134261A1, “Effectors of innate immunity” (priority 2001, published 2007)
Values after ≈ are worked out from the molar mass of the structure shown. Like-named read-outs stand apart in the source and are kept apart here. Residues, ends and D or L forms follow the SMILES beside them.

Key:
[1] = type: cell-based
CD-1 mice = assay: Lethal endotoxemia in galactosamine-sensitized CD-1 mice; type: in vivo; settings: 2 μg LPS; peptide 200 μg/mouse = 8 mg/kg IP 15 min after LPS; 48 hours; control 0
[2] = test system: RAW 264.7 mouse macrophage cells; type: cell-based; settings: Peptide 20 μg/ml; 100 ng/ml E. coli 0111:B4 LPS, 6 h
BALB/c mice = assay: Lethal endotoxemia in galactosamine-sensitized BALB/c mice; type: in vivo; settings: 2 μg LPS; peptide 200 μg/mouse = 8 mg/kg IP 15 min after LPS; 48 hours; no peptide 10
HBE cells = assay: WST-1 assay (cell viability); type: cell-based, human
Method in brief: (§1)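 Both read-outs were colorimetric at OD490 on HBE cells after 24 h with 100 μg of each peptide. The WST-1 assay reported viability through mitochondrial dehydrogenase cleavage of the tetrazolium salt. The LDH assay tested the removed supernatant for enzyme leaked from membrane-damaged cells.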

[3] = test system: human bronchial epithelial cells (HBE); assay: LDH release assay (Cytotoxicity Detection Kit); type: cell-based; settings: 100 μg/ml, 24 hours; no peptide control 1.0 ± 0.05
Method in brief: as §1

[4] = test system: A549 human epithelial cells; assay: Induction of chemokines (IL-8, MCP-1) in A549 cells (ELISA); type: cell-based; settings: peptide 10 ug/ml, 24 hr
Experimental: The murine macrophage cell line RAW 264.7, THP-1 cells (human monocytes), a human epithelial cell line (A549), human bronchial epithelial cells (16HBEo14), and whole human blood were used. HBE cells were grown in MEM with Earle's. THP-1 cells were grown and maintained in RPMI 1640 medium. The RAW and A549 cell lines were maintained in DMEM supplemented with 10% fetal calf serum. […] DMEM was aspirated from cells grown overnight and replaced with fresh medium. After incubation of the cells with peptide, the release of chemokines into the culture supernatant was determined by ELISA (R&D Systems, Minneapolis, Minn.).

Salmonella = Salmonella infection in BALB/c mice (viable bacteria in spleen); type: in vivo, mouse; settings: Table 49; peptide 200 μg IP, 24 h; Control 2.70 ± […] 10^5
Experimental: (§2) BALB/c mice were given 1×10^5 Salmonella and cationic peptide (200 μg) by intraperitoneal injection. The mice were monitored for 24 hours at which point they were euthanized, the spleen removed, homogenized and resuspended in PBS and plated on Luria Broth agar plates with Kanamycin (50 μg/ml). The plates were incubated overnight at 37° C. and counted for viable bacteria (Table 49 and 50). CD-1 mice were given 1×10^8 S. aureus in 5% porcine mucin and cationic peptide (200 μg) by intraperitoneal injection (Table 51). The mice were monitored for 3 days at which point they were euthanized, blood removed and plated for viable counts. CD-1 male mice were given 5.8×10^6 CFU EHEC bacteria and cationic peptide (200 μg) by intraperitoneal (IP) injection and monitored for 3 days (Table 52). […] Many of the cationic peptides were shown not to be directly antimicrobial as tested by the Minimum Inhibitory Concentration (MIC) assay (Table 54).

S. aureus = assay: Murine S. aureus infection model (CD-1 mice); type: in vivo, mouse; settings: peptide 200 μg IP; for CFU/ml (blood): 3 days, No Peptide 7.61 ± 1.7 × 10^3; for # Mice Survived (3 days)/Total mice in group: No Peptide 6/8
Experimental: as §2

In the case of `CC[C@H](C)[C@H](N)C(=O)N[C@@H](CC(C)C)C(=O)N1CCC[C@H]1C(=O)N[C@@H](Cc1c[nH]c2ccccc12)C(=O)N[C@@H](CCCCN)C(=O)N[C@@H](Cc1c[nH]c2ccccc12)C(=O)N1CCC[C@H]1C(=O)N[C@@H](Cc1c[nH]c2ccccc12)C(=O)N[C@@H](Cc1c[nH]c2ccccc12)C(=O)N1CCC[C@H]1C(=O)N[C@@H](Cc1c[nH]c2ccccc12)C(=O)N[C@@H](CCCNC(=N)N)C(=O)N[C@@H](CCCNC(=N)N)C(N)=O` [SEQ ID NO: 2], the “MIC, C. rhod.” value ([1]; 24 h) was 64 µg/mL (≈ 33.6 µM), the “MIC, E. coli” value ([1]; 24 h) was 4 µg/mL (≈ 2.1 µM) and the “MIC, P. aerug.” value ([1]; 24 h) was 32 µg/mL (≈ 16.8 µM). For the same compound, the “MIC, S. aureus” value ([1]; 24 h) was 16 µg/mL (≈ 8.39 µM) and the “MIC, S. typhim.” value ([1]; 24 h) was 16 µg/mL (≈ 8.39 µM).

In the case of `CC[C@H](C)[C@H](NC(=O)[C@@H]1CCCN1C(=O)[C@H](CS)NC(=O)[C@H](CCCNC(=N)N)NC(=O)[C@@H](N)CC(C)C)C(=O)N[C@@H](C)C(=O)N1CCC[C@H]1C(=O)N[C@H](C(=O)N[C@H](C(=O)N1CCC[C@H]1C(=O)N[C@H](C(=O)N[C@@H](CS)C(=O)N[C@@H](CCCCN)C(=O)N[C@@H](CCCCN)C(=O)O)C(C)C)[C@@H](C)CC)C(C)C` [SEQ ID NO: 6] (H-LRCPIAPVIPVCKK-OH; N-terminus and C-terminus assumed), the Survival (CD-1 mice) was 40%, the “Inhibition of TNF-α” value [2] was 59.8 ± 1.2% and the Survival (BALB/c mice) was 17%. For the same compound, the “OD490 nm (WST-1 cell viability)” value (HBE cells) was 1.81 ± 0.05 OD490 nm, the “MIC, C. rhod.” value ([1]; 24 h) was 64 µg/mL (≈ 41.6 µM) and the “MIC, E. coli” value ([1]; 24 h) was 128 µg/mL (≈ 83.3 µM). For the same compound, the “MIC, EHEC” value ([1]; 24 h) was 64 µg/mL (≈ 41.6 µM), the “MIC, S. typhim.” value ([1]; 24 h) was 128 µg/mL (≈ 83.3 µM) and the “MIC, S. aureus” value ([1]; Staphylococcus aureus, overnight, 96-well plate) was “>”. The “LDH Release (OD490 nm)” value [3] was 0.97 ± 0.02 OD490 nm, the IL-8 [4] was 0.181 ng/mL and the “Viable Bacteria in the Spleen” value (Salmonella) was 2.57 ± 0.72 × 10^4 CFU/ml. For the same compound, the “CFU/ml (blood)” value (S. aureus) was 1.98 ± 0.05 × 10^2 CFU/ml and the “# Mice Survived (3 days)/Total mice in group” value (S. aureus) was 3/4.

With `CSCC[C@H](NC(=O)[C@H](CO)NC(=O)[C@@H](NC(=O)[C@H](CCCCN)NC(=O)[C@H](Cc1ccccc1)NC(=O)[C@H](CS)NC(=O)[C@H](CO)NC(=O)[C@H](CCCNC(=N)N)NC(=O)[C@@H](N)CCCCN)C(C)C)C(=O)N[C@@H](CCCNC(=N)N)C(=O)NCC(=O)N[C@H](C(=O)N[C@@H](CO)C(=O)N[C@@H](CCCNC(=N)N)C(=O)N[C@@H](CCCNC(=N)N)C(=O)N[C@@H](CCCNC(=N)N)C(=O)N[C@@H](CS)C(=O)N[C@@H](CCCCN)C(=O)O)C(C)C` [SEQ ID NO: 27] (H-KRSCFKVSMRGVSRRRCK-OH; N-terminus and C-terminus assumed) the Survival (CD-1 mice) was 20%, the “Inhibition of TNF-α” value [2] was 51.1 ± 2.8% and the Survival (BALB/c mice) was 50%. The “OD490 nm (WST-1 cell viability)” value (HBE cells; 100 μg/ml, 24 hours, no peptide control 1.63 ± 0.16) was 1.63 ± 0.03 OD490 nm, the “MIC, C. rhod.” value ([1]; 24 h) was 2 µg/mL (≈ 0.915 µM) and the “MIC, E. coli” value ([1]; 24 h) was 8 µg/mL (≈ 3.66 µM). The “MIC, EHEC” value ([1]; 24 h) was 4 µg/mL (≈ 1.83 µM), the “MIC, P. aerug.” value ([1]; 24 h) was 64 µg/mL (≈ 29.3 µM) and the “MIC, S. aureus” value ([1]; 24 h) was 64 µg/mL (≈ 29.3 µM). For the same compound, the “MIC, S. typhim.” value ([1]; 24 h) was 16 µg/mL (≈ 7.32 µM), the “LDH Release (OD490 nm)” value [3] was 0.91 ± 0.04 OD490 nm and the IL-8 [4] was 0.346 ng/mL. For the same compound, the “Viable Bacteria in the Spleen” value (Salmonella) was 1.01 ± 0.26 × 10^5 CFU/ml, the “CFU/ml (blood)” value (S. aureus) was 2.25 ± 0.1 × 10^2 CFU/ml and the “# Mice Survived (3 days)/Total mice in group” value (S. aureus) was 3/4.
